Measurements reported in ChEMBL document CHEMBL1201862, “PubChem BioAssay data set” (2004).
The source made the active and inactive calls.

How the values were obtained:
[1] = target: MAP kinase-activated protein kinase 3 (Homo sapiens, UniProt Q16644); assay type: functional;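 also: value comes from a kinome-wide profiling panel in which MAPKAPK3 is one of the panel members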
[2] = target: Lymphokine-activated killer T-cell-originated protein kinase (Homo sapiens, UniProt Q96KB5); assay type: functional;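 also: value comes from a kinase panel screen in which TOPK was one of the panel members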
Chain of Lymphokine-activated killer T-cell-originated protein kinase (Q96KB5 whole entry): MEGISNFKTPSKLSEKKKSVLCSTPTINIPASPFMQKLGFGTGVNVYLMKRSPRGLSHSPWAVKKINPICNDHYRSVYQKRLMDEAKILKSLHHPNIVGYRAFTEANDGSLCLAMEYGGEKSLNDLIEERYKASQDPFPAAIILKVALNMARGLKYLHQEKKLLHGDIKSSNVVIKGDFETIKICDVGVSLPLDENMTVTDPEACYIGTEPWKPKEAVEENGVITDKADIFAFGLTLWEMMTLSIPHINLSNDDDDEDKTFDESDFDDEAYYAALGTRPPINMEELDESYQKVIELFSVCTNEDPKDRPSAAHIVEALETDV

[3] = target: Casein kinase II subunit alpha (Homo sapiens, UniProt P68400); assay type: functional
Chain of Casein kinase II subunit alpha (P68400 whole entry): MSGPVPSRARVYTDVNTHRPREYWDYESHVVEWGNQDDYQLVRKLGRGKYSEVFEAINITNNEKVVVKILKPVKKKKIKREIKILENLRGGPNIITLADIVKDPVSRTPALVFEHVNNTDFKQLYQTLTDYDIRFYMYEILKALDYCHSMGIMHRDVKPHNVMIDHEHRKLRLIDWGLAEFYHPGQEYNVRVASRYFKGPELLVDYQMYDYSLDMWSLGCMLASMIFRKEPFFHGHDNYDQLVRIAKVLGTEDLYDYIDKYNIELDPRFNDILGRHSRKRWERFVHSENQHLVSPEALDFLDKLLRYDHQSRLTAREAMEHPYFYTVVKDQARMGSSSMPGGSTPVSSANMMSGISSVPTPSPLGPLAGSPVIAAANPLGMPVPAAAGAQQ

[4] = target: Serine/threonine-protein kinase pim-1 (Homo sapiens, UniProt P11309); assay type: functional
Chain of Serine/threonine-protein kinase pim-1 (P11309 whole entry): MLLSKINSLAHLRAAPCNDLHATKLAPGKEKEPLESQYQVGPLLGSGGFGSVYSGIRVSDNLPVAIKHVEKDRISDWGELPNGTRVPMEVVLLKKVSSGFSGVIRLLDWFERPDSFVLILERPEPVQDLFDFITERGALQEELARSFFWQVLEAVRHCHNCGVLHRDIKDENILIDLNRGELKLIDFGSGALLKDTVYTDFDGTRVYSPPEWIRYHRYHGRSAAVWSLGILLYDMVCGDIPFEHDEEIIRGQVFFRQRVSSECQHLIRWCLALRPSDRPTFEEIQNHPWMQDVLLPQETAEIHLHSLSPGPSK

[5] = target: Mitogen-activated protein kinase kinase kinase kinase 5 (Homo sapiens, UniProt Q9Y4K4); assay type: functional;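 also: measured as one member of a kinome-spanning kinase panel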
Chain of Mitogen-activated protein kinase kinase kinase kinase 5 (Q9Y4K4 whole entry): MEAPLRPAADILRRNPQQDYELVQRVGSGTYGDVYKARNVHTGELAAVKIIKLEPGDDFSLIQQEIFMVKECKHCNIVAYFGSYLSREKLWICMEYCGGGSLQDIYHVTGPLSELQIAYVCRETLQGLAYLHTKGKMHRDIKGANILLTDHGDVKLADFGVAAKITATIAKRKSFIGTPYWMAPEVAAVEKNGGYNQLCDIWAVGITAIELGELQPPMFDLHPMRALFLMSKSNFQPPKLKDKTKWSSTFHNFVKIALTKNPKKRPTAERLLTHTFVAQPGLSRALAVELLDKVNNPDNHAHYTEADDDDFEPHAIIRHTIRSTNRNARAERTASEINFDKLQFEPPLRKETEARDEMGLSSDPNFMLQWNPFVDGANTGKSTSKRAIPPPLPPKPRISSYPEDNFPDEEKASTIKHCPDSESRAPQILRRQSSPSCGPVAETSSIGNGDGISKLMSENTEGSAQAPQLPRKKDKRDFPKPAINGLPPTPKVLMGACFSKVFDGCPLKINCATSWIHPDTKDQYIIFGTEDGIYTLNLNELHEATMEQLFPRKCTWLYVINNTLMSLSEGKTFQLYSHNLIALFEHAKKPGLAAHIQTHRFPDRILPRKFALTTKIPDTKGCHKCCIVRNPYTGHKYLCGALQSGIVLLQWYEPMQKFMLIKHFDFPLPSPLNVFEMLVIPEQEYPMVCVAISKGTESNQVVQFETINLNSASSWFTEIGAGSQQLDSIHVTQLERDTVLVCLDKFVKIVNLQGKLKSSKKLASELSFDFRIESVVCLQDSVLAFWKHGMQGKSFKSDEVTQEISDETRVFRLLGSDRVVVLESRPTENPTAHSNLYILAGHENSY

Aurora kinase B = Aurora kinase B (Homo sapiens, UniProt Q96GD4); assay type: functional
[6] = target: ALK tyrosine kinase receptor (Homo sapiens, UniProt Q9UM73); assay type: functional;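 also: ALK tested as one member of a kinase panel screen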
Wee1-like protein kinase = Wee1-like protein kinase (Homo sapiens, UniProt P30291); test: Navigating the Kinome. Panel member name: WEE1; assay type: functional
[7] = target: Melanin-concentrating hormone receptor 1 (Homo sapiens, UniProt Q99705); test: Late-stage fluorescence-based counterscreen for antagonists of the G-protein coupled receptor 7 (GPR7): cell-based dose response assay to identify antagonists of the melanin-concentrating hormone receptor 1 (MCHR1) Set 5.; assay type: functional
[8] = target: Neuropeptides B/W receptor type 1 (Homo sapiens, UniProt P48145); test: GPR7 antagonist potency, late-stage follow-up, cell-based, fluorescence, dose response, set 5 (AID 588566); assay type: functional
[9] = target: Serine/threonine-protein kinase Chk1 (Homo sapiens, UniProt O14757); assay type: functional;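 also: measured as one member of a kinome-wide kinase profiling panel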
Chain of Serine/threonine-protein kinase Chk1 (O14757 whole entry): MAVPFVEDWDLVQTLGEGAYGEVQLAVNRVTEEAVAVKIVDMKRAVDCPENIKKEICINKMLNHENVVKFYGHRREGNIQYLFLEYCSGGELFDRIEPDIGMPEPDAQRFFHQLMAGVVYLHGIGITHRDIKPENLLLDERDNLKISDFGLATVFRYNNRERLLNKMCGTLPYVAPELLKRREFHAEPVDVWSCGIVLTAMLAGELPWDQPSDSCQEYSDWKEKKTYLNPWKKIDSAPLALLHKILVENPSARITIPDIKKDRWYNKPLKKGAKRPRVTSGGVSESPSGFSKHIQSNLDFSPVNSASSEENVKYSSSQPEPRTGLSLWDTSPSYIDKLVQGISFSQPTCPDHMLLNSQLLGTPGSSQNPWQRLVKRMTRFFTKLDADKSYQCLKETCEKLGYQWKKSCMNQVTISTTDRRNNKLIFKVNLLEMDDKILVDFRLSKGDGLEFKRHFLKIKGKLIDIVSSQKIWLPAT

[10] = target: Macrophage colony-stimulating factor 1 receptor (Homo sapiens, UniProt P07333); assay type: functional;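 also: value comes from the Navigating the Kinome screening panel, CSF1R member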
Chain of Macrophage colony-stimulating factor 1 receptor (P07333 whole entry, the tested form may be a part): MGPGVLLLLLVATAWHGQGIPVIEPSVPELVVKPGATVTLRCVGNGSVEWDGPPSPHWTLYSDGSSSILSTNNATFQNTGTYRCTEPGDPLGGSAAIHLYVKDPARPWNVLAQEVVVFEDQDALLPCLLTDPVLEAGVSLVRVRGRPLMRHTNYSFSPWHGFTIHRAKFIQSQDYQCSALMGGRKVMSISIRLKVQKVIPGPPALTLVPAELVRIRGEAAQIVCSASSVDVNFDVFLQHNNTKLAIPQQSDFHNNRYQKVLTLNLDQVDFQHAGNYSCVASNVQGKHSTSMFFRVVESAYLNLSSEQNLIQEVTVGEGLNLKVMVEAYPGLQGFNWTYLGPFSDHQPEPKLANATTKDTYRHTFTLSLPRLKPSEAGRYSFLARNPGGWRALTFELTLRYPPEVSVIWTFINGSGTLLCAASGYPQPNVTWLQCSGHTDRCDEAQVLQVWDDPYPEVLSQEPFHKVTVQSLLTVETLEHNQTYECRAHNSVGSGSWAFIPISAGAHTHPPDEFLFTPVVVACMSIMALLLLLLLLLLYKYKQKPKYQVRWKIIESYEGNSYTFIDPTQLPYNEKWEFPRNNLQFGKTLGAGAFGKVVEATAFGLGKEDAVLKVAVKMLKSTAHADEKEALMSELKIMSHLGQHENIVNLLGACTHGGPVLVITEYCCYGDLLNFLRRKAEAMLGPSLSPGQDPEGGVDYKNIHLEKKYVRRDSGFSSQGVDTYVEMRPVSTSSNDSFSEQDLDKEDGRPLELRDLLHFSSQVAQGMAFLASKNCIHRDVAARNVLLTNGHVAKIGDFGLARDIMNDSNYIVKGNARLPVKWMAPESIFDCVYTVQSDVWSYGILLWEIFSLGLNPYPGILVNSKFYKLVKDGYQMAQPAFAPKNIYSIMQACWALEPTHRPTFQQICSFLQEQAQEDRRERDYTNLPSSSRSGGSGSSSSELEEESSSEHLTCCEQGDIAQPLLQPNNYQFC

LIM domain kinase 1 = LIM domain kinase 1 (Homo sapiens, UniProt P53667); test: Navigating the Kinome. Panel member name: LIMK1; assay type: functional
Chain of LIM domain kinase 1 (P53667 whole entry, the tested form may be a part): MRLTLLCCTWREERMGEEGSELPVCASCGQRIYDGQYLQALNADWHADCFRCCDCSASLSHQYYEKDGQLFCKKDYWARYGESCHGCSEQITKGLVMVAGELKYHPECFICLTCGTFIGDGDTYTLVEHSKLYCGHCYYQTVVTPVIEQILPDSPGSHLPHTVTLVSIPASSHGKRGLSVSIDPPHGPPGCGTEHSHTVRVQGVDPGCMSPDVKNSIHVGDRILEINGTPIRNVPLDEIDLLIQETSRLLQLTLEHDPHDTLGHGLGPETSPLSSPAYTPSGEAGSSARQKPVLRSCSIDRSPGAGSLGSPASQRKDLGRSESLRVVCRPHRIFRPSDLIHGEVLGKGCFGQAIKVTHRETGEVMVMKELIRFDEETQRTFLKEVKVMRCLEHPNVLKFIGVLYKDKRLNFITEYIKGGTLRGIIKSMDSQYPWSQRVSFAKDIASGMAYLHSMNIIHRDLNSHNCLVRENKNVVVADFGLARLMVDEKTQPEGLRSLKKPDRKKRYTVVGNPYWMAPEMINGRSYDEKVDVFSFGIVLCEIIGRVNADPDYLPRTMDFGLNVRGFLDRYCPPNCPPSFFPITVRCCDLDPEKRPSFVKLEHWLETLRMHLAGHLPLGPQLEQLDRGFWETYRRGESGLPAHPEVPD

[11] = target: T1, High affinity choline transporter 1 (Homo sapiens, UniProt Q9GZV3); test: CHT inhibitors, dose response, cell-based, 10-point CRC, membrane potential dye (AID 588401); assay type: functional;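 also: membrane potential dye fluorescence of choline-evoked depolarization via CHT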
T1 sequence (Q9GZV3 whole entry): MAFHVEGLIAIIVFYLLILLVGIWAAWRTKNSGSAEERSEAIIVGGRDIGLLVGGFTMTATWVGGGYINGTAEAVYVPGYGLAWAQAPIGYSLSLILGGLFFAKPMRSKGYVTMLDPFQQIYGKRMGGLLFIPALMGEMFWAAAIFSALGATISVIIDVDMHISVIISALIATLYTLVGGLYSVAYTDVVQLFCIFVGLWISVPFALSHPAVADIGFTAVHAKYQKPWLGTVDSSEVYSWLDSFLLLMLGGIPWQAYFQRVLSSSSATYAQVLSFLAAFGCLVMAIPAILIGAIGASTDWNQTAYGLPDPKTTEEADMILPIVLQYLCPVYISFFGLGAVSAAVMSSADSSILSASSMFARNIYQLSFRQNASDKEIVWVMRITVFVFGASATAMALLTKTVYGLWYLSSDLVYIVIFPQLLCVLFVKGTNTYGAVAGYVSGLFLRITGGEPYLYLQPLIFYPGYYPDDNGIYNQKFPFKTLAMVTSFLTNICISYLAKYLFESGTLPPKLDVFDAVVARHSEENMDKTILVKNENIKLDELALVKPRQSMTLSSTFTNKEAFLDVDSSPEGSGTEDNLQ

[12] = target: FAD-linked sulfhydryl oxidase ALR (Homo sapiens, UniProt P55789); test: inhibitors of human ALR sulfhydryl oxidase, dose response, biochemical, H2O2 detection, luminescence, cherry-pick (AID 493248)
Chain of FAD-linked sulfhydryl oxidase ALR (P55789 whole entry): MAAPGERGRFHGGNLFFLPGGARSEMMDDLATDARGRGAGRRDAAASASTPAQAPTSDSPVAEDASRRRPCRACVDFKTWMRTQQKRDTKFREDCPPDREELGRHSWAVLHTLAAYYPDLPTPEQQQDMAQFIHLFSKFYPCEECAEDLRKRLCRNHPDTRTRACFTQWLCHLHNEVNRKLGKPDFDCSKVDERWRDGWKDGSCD

[13] = target: T1, High affinity choline transporter 1; test: CHT inhibitors, dose response, cell-based, 5-point CRC, membrane potential dye (AID 504840); assay type: functional
[14] = target: High affinity nerve growth factor receptor (Homo sapiens, UniProt P04629); assay type: functional;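 also: NTRK1 tested as one member of a kinome-wide profiling panel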
[15] = target: Leukocyte tyrosine kinase receptor (Homo sapiens, UniProt P29376); test: Navigating the Kinome. Panel member name: LTK; assay type: functional
[16] = target: Cyclin-dependent kinase 19 (Homo sapiens, UniProt Q9BWU1); test: Navigating the Kinome. Panel member name: CDC2L6; assay type: functional
Chain of Cyclin-dependent kinase 19 (Q9BWU1 whole entry): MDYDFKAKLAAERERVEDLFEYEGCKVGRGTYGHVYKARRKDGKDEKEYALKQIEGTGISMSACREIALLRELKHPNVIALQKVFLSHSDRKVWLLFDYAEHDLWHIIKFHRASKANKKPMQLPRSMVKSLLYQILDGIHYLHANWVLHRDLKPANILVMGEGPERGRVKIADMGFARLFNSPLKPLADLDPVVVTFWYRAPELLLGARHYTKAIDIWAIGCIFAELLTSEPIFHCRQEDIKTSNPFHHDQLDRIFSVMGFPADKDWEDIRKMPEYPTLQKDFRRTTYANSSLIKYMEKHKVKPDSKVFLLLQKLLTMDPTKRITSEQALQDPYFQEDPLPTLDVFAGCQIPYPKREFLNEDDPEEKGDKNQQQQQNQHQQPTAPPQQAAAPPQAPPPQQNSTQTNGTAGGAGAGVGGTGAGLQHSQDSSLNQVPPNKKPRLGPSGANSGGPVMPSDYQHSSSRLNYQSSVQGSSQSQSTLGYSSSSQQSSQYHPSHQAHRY

[17] = target: Hepatocyte growth factor receptor (Homo sapiens, UniProt P08581); assay type: functional;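 also: kinase panel profiling across the kinome, with MET as the panel member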

In the case of `COc1cc2ncnc(Nc3ccc(F)c(Cl)c3)c2cc1OCCCN1CCOCC1` [GEFITINIB], the Ki [1] is reported as > 10 µM (inactive) and the Ki [2] is reported as > 10 µM (inactive).
In the case of `COc1ccc(C=C2C(=O)ON=C2c2ccc(Br)cc2)cc1`, the Ki [3] is reported as 3.98 µM (active), the Ki [4] is reported as 1.58 µM (active) and the Ki [5] is reported as 2 µM (active). The Ki (Aurora kinase B) was 1.58 µM (active).
For `CNc1nc(C)c(-c2ccnc(Nc3ccc(N4CCN(C(C)=O)CC4)cc3)n2)s1`, the Ki [6] was 2.51 µM (active) and the Ki (Wee1-like protein kinase) was 200 nM (active).
For `CCOc1ccc(Sc2c(Cl)cnn(Cc3cccc4ccccc34)c2=O)cc1`, the IC50 [7] was > 20 µM (inactive) and the IC50 [8] was 887 nM (active).
For `c1ccc(-c2ncc3ccccn23)cc1`, the Ki [9] was 25.1 µM (active), the Ki [10] was > 100 µM (inactive) and the Ki (LIM domain kinase 1) was 10 µM (active).
For `Oc1ccc(CC2CC3CCN2CC3)cc1O` (stereo unspecified), the IC50 [11] was 1.15 µM (active), the AC50 [12] was 3.81 µM (active) and the IC50 [13] was 1.08 µM (active).
In the case of `CCc1cc(-c2n[nH]c(C)c2-c2ccc3c(c2)OCCO3)c(O)cc1O`, the Ki [14] is reported as > 15.8 µM (inactive), the Ki [4] is reported as 1.58 µM (active) and the Ki [15] is reported as 2.51 µM (active). For the same molecule, the Ki [16] was > 100 µM (inactive) and the Ki [17] was 2.51 µM (active).
